Among the data in US20220213074A1, “ABHD12 INHIBITORS AND METHODS OF MAKING AND USING SAME” (H. Lundbeck A/S, priority 2019, published 2022) are inhibition and IC50 values, retold here.

The target of the test is T1, ABHD12 (Mus musculus, UniProt Q99LR1).
T1 construct: from tissue; host or cells: mouse brain (membrane fraction)
T1 sequence (Q99LR1 1-398): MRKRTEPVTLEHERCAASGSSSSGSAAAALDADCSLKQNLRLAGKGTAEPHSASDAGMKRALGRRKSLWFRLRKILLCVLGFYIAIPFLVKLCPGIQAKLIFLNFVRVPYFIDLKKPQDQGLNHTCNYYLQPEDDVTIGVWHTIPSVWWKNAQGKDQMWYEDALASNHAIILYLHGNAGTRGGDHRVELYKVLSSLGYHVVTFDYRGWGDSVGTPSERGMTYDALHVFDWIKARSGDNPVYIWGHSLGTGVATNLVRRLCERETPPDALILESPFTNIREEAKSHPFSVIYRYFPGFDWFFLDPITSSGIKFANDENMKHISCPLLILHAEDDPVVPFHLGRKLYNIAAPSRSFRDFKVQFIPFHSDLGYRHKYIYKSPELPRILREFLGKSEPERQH
The test can be described thus: In vitro competitive activity-based protein profiling (FP-Rhodamine probe, gel-based) in mouse brain membrane proteomes. In kind it is biochemical. Conditions: mouse brain membrane proteome, 30 min preincubation at 37° C.; for inhibition at 1 µM: 1 μM inhibitor; for inhibition at 50 µM: 50 μM inhibitor (stated in cell); for inhibition at 10 µM: 10 μM inhibitor (stated in cell). On the procedure:
Compounds were tested to assess their ABHD12 activity using the following assay.
Mouse brain membrane proteomes (50 μL, 1.0 mg/mL total protein concentration) were preincubated with varying concentrations of inhibitors at 37° C. After 30 min, FP-Rhodamine probe (1.0 μL, 50 μM in DMSO) was added and the mixture was incubated for 30 min at room temperature. Reactions were quenched with SDS loading buffer (15 μL-4×) and proteins were resolved by SDS-PAGE gel (10% acrylamide). Following in-gel fluorescence imaging, enzyme activity was determined by measuring intensity of gel bands corresponding to ABHD12 using ImageJ software.

Each structure is given as a SMILES string. A value given as a limit tells only on which side of the number the result lay.

The molecule `O=C(Nc1cccnc1)NC1CCN(c2cc(Oc3ccc(C(F)(F)F)cc3)ccn2)CC1` [Example 7, 1-(Pyridin-3-yl)-3-(1-(4-(4-(trifluoromethyl)phenoxy)pyridin-2-yl)piperidin-4-yl)urea] showed an inhibition at 1 µM of 25 to 50%.

`O=C(Nc1cccnc1)NC1CCN(c2nccc(Oc3ccc(F)c(OC(F)(F)F)c3)c2Cl)CC1` [Example 5, 1-(1-(3-Chloro-4-(4-fluoro-3-(trifluoromethoxy)phenoxy)pyridin-2-yl)piperidin-4-yl)-3-(pyridin-3-yl)urea] gave an inhibition at 1 µM of 25 to 50%.

As for `O=C(Nc1cccnc1)NC1CCN(c2nccc(-c3cccc(OC(F)(F)F)c3)c2Cl)CC1` [Example 26, 1-(1-(3-Chloro-4-(3-(trifluoro-methoxy)phenyl)pyridin-2-yl)piperidin-4-yl)-3-(pyridin-3-yl)urea], the inhibition at 1 µM was not below 75% and the IC50 was 100 to 1000 nM.

With `O=C(Nc1cccnc1)NC1CCN(c2ncccc2Oc2ccc(OC(F)(F)F)cc2Cl)CC1` [Example 23, 1-(1-(3-(2-Chloro-4-(trifluoro-methoxy)phenoxy)pyridin-2-yl)piperidin-4-yl)-3-(pyridin-3-yl) urea], the inhibition at 1 µM is not below 75% and the IC50 lay in the range of 100 to 1000 nM.

On to `O=C(Nc1cccnc1)NC1CCN(c2nccc(Oc3ccc(OC(F)(F)F)c(Cl)c3)c2Cl)CC1` [Example 15, 1-(1-(3-Chloro-4-(3-chloro-4-(trifluoro-methoxy)phenoxy)pyridin-2-yl)piperidin-4-yl)-3-(pyridin-3-yl)urea], for which the inhibition at 1 µM was not below 75% and the IC50 lay in the range of 100 to 1000 nM.

`C#Cc1ccc(Oc2ccnc(N3CCC(NC(=O)Nc4cccnc4)CC3)c2Cl)c(Cl)c1` [Example 6, 1-(1-(3-Chloro-4-(2-chloro-4-ethynylphenoxy)pyridin-2-yl)piperidin-4-yl)-3-(pyridin-3-yl)urea] gave an inhibition at 1 µM not below 75% and an IC50 of 100 to 1000 nM.

Molecule `O=C(Nc1cccnc1)NC1CCN(c2cc(OCC3CC3)ccn2)CC1` [Example 19] returned an inhibition at 50 µM of 50 to 75%.

As to `O=C(Nc1cccnc1)NC1CCN(c2ccc(Cl)cn2)CC1` [Example 11, 1-(1-(5-Chloropyridin-2-yl)piperidin-4-yl)-3-(pyridin-3-yl) urea], the inhibition at 50 µM is not below 75%.

`Cc1cc(OC(F)(F)F)ccc1Oc1ccnc(N2CCC(NC(=O)Nc3cccnc3)CC2)c1Cl` [Example 16, 1-(1-(3-Chloro-4-(2-methyl-4-(trifluoro-methoxy)phenoxy)pyridin-2-yl)piperidin-4-yl)-3-(pyridin-3-yl)urea] came in with an inhibition at 1 µM not below 75% and an IC50 of 100 to 1000 nM.

In the case of `O=C(Nc1cccnc1)NC1CCN(c2nccc(Oc3ccc(OC(F)(F)F)c(F)c3)c2Cl)CC1` [Example 14, 1-(1-(3-Chloro-4-(3-fluoro-4-(trifluoro-methoxy)phenoxy)pyridin-2-yl)piperidin-4-yl)-3-(pyridin-3-yl)urea], the inhibition at 1 µM was not below 75% and the IC50 was 100 to 1000 nM.

Take `N#Cc1c(Oc2ccc(C(F)(F)F)cc2)ccnc1N1CCC(NC(=O)Nc2cccnc2)CC1` [Example 20, 1-(1-(3-Cyano-4-(4-(trifluoro-methyl)phenoxy)pyridin-2-yl)piperidin-4-yl)-3-(pyridin-3-yl) urea]: the inhibition at 1 µM fell in the range of 50 to 75%.

For `O=C(Nc1cccnc1)NC1CCN(c2nc(Oc3ccc(OC(F)(F)F)cc3Cl)ccc2Cl)CC1` [Example 24, 1-(1-(3-Chloro-6-(2-chloro-4-(trifluoro-methoxy)phenoxy)pyridin-2-yl)piperidin-4-yl)-3-(pyridin-3-yl)urea], the inhibition at 1 µM lay within 25 to 50%.

Molecule `O=C(Nc1cccnc1)NC1CCN(c2nccc(C(F)(F)F)c2Cl)CC1` [Example 8, 1-(1-(3-Chloro-4-(trifluoro-methyl)pyridin-2-yl)piperidin-4-yl)-3-(pyridin-3-yl)urea] displayed an inhibition at 10 µM of 50 to 75%.

The molecule `O=C(Nc1cccnc1)NC1CCN(c2nccc(OCc3cccc(OC(F)(F)F)c3)c2Cl)CC1` [Example 29, 1-(1-(3-Chloro-4-((3-(trifluoro-methoxy)benzyl)oxy)pyridin-2-yl)piperidin-4-yl)-3-(pyridin-3-yl)urea] displayed an inhibition at 1 µM of 25 to 50%.

Regarding `CC(C)OC(=O)N1CCC(Oc2ccnc(N3CCC(NC(=O)Nc4cccnc4)CC3)c2)CC1` [Example 22, Isopropyl 4-((2-(4-(3-(pyridin-3-yl)ureido)piperidin-1-yl)pyridin-4-yl)oxy) piperidine-1-carboxylate], the inhibition at 50 µM fell in the range of 25 to 50%.

For the molecule `O=C(Nc1cccnc1)NC1CCN(c2nccc(-c3ccc(OC(F)(F)F)cc3)c2Cl)CC1` [Example 27, 1-(1-(3-Chloro-4-(4-(trifluoro-methoxy)phenyl)pyridin-2-yl)piperidin-4-yl)-3-(pyridin-3-yl)urea], the inhibition at 1 µM was not below 75% and the IC50 fell in the range of 100 to 1000 nM.

Molecule `O=C(Nc1cccnc1)NC1CCN(c2nccc(OC3CCOCC3)c2Cl)CC1` [Example 21, 1-(1-(3-Chloro-4-((tetrahydro-2H-pyran-4-yl)oxy)pyridin-2-yl)piperidin-4-yl)-3-(pyridin-3-yl)urea] showed an inhibition at 1 µM of 0 to 25%.

`O=C(Nc1cccnc1)NC1CCN(c2cccc(C(F)(F)F)n2)CC1` [Example 1, 1-(Pyridin-3-yl)-3-(1-(6-(trifluoromethyl)pyridin-2-yl)piperidin-4-yl)urea] came in with an inhibition at 10 µM of 50 to 75%.

Consider `Cc1c(Oc2ccc(OC(F)(F)F)cc2)ccnc1N1CCC(NC(=O)Nc2cccnc2)CC1` [Example 9, 1-(1-(3-Methyl-4-(4-(trifluoro-methoxy)phenoxy)pyridin-2-yl)piperidin-4-yl)-3-(pyridin-3-yl) urea], for which the inhibition at 1 µM was not below 75% and the IC50 was 100 to 1000 nM.

`C#Cc1ccc(N2CCC(NC(=O)Nc3cccnc3)CC2)nc1` [Example 25, 1-(1-(5-Ethynyl-pyridin-2-yl)piperidin-4-yl)-3-(pyridin-3-yl)urea] yielded an inhibition at 1 µM of 0 to 25%.

Consider `O=C(Nc1cccnc1)NC1CCN(c2nccc(Oc3ccc(OC(F)(F)F)cc3)c2Cl)CC1` [Example 10, 1-(1-(3-Chloro-4-(4-(trifluoro-methoxy)phenoxy)pyridin-2-yl)pipcridin-4-yl)-3-(pyridin-3-yl) urea], for which the inhibition at 1 µM was not below 75% and the IC50 is not above 100 nM.

With `O=C(Nc1cccnc1)NC1CCN(c2nccc(OCc3ccc(OC(F)(F)F)cc3)c2Cl)CC1` [Example 28, 1-(1-(3-Chloro-4-((4-(trifluoro-methoxy)benzyl)oxy)pyridin-2-yl)piperidin-4-yl)-3-(pyridin-3-yl)urea], the inhibition at 1 µM lay within 25 to 50%.

In the case of `COc1ccnc(N2CCC(NC(=O)Nc3cccnc3)CC2)c1` [Example 18], the inhibition at 1 µM was 0 to 25%.

Consider `O=C(Nc1cccnc1)NC1CCN(c2nccc(Oc3cccc(OC(F)(F)F)c3)c2Cl)CC1` [Example 17, 1-(1-(3-Chloro-4-(3-(trifluoro-methoxy)phenoxy)pyridin-2-yl)piperidin-4-yl)-3-(pyridin-3-yl)urea], for which the inhibition at 1 µM lay within 50 to 75%.

Consider `CC(=O)c1ccc(N2CCC(NC(=O)Nc3cccnc3)CC2)nc1` [Example 3, 1-(1-(5-Acetylpyridin-2-yl)piperidin-4-yl)-3-(pyridin-3-yl)urea], for which the inhibition at 1 µM was in the range of 0 to 25%.

Turning to `O=C(Nc1cccnc1)NC1CCN(c2cc(-c3ccc(OC(F)(F)F)cc3)ccn2)CC1` [Example 4, 1-(Pyridin-3-yl)-3-(1-(4-(4-(trifluoromethoxy)phenyl)pyridin-2-yl)piperidin-4-yl)urea], the inhibition at 1 µM was 25 to 50%.

The molecule `N#Cc1ccnc(N2CCC(NC(=O)Nc3cccnc3)CC2)c1` [Example 12, 1-(1-(4-Cyanopyridin-2-yl)piperidin-4-yl)-3-(pyridin-3-yl) urea] registered an inhibition at 50 µM of 25 to 50%.

Regarding `O=C(Nc1cccnc1)NC1CCN(c2nccc(Oc3ccc(Cl)c(OC(F)(F)F)c3)c2Cl)CC1` [Example 2, 1-(1-(3-Chloro-4-(4-chloro-3-(trifluoromethoxy)phenoxy)pyridin-2-yl)piperidin-4-yl)-3-(pyridin-3-yl)urea], the inhibition at 1 µM was not below 75% and the IC50 fell in the range of 100 to 1000 nM.

Molecule `O=C(Nc1cccnc1)NC1CCN(c2nccc(Oc3ccccc3OC(F)(F)F)c2Cl)CC1` [Example 13, 1-(1-(3-Chloro-4-(2-(trifluoro-methoxy)phenoxy)pyridin-2-yl)piperidin-4-yl)-3-(pyridin-3-yl)urea] displayed an inhibition at 1 µM of 25 to 50%.

The term inhibition denotes the relative decrease from the control value, in per cent. What is called IC50 is the midpoint of a concentration-inhibition curve.
